From US12496357B2, “Compositions and methods for treating sickle cell disease” (Yale University, priority 2019, dated 2025)

Experiments:
[1] = system: SCD mutation (β-globin gene), bulk mouse bone marrow cells; test: SCD gene correction by ddPCR of gDNA, bulk bone marrow cells treated ex vivo; format: cell-based; settings: for effect of added factor on gene editing frequencies by ddPCR: bulk bone marrow and HSPCs (lin−) treated with tcPNA 2 nanoparticles, particularly in HSPCs; for effect of DNA repair modulator on editing vs NP only: PLA-HPG nanoparticles encapsulating tcPNA 2 or sertcPNA 2
Protocol: Bulk mouse bone marrow cells were treated with PLGA NPs encapsulating tcPNA 1A, 2A, 3A and correcting donor DNA molecules.
Bulk bone marrow cells were treated with PLGA NPs encapsulating modified (tc PNA 2A) and unmodified versions (tc PNA 2) of PNA sequence. 72 hours after treatment, gDNA was isolated and analyzed for editing frequencies by ddPCR.
(§1) Bulk bone marrow cells were treated with PLGA NPs encapsulating unmodified PNA (tcPNA 2). 72 hours after treatment HSPCs, were isolated from bulk cells via negative and positive selection, and gene editing all three populations was compared.
(§2) Bulk bone marrow and HSPCs (lin^−) were treated with tcPNA 2 nanoparticles and combinations of stem cell factor, erythropoietin, and plerixafor. 72 hours after treatment, gDNA was isolated and analyzed for editing frequencies by ddPCR.
Bulk bone marrow cells were treated with tcPNA 2 encapsulated into poly(lactic-co-glycolic acid) (PLGA), or poly(lactic acid)PLA-HPG.
Nanoparticles made from poly(lactic acid) (PLA) conjugated to hyperbranched polyglycerols (HPG), referred to as PLA-HPG, were synthesized using a double emulsion solvent evaporation protocol. Briefly, 50 mg of PLA-HPG was dissolved in 2.4 mL of ethyl acetate and 0.6 mL of DMSO. PNA and donor DNA were heated to 60° C. for 10 minutes, mixed, and immediately added dropwise to the polymer solution under vortex. This 1st emulsion (water-in-oil) was sonicated 3 times at 38% amplitude for 10 seconds using a probe sonicator. Following sonication, the primary emulsion was added dropwise to 4 mL of diH2O, forming the second emulsion (water-in-oil-in-water), which was subsequently sonicated as above. Nanoparticles were further diluted in 20 mL of diH2O. Residual organic solvent was removed using a rotovap. After solvent removal, nanoparticles were collected via centrifugation in Amicon 100K filter tubes. Following a second washing step, nanoparticles were resuspended in diH2O, frozen, and stored as 100 μl aliquots containing 2 mg of nanoparticles. Where indicated, low molecular weight PLA-HPG (P7H9-2) or high molecular weight PLA-HPG (P7H3-18) was used.
Bulk bone marrow cells were treated with PLGA or PLA-HPG nanoparticles encapsulating unmodified (tcPNA 2) and serine modified (^sertcPNA 2) along with correcting donor DNA molecules.
Experiments were designed to test the effects of DNA repair inhibition on gene editing. Bulk bone marrow cells were treated with PLA-HPG nanoparticles encapsulating tcPNA 2 or ^sertcPNA 2, with or without the addition of small molecule modulators of DNA repair: RS-1, RI-1, RI-2, B0-2, or SCR-7.

[2] = system: SCD mutation (β-globin gene), HSPCs (lin−); test: SCD gene correction by ddPCR of gDNA, HSPCs (lin−) isolated via negative selection; format: cell-based, mouse; settings: PLGA NPs encapsulating tcPNA 2; 72 hours; comparison of three cell populations
Protocol: as §1, §2

Berk hemizygous mice = test: In vivo gene editing in Berk hemizygous mice treated with nanoparticles; set-up: species or system mouse; settings: nanoparticles encapsulating tcPNA 2 and donor DNA, intravenous
Text: Experiments were designed to test the ability of tcPNA 2 to drive gene editing in vivo.
Berk hemizygous mice treated with nanoparticles encapsulating unmodified SCD-tcPNA 2: H-KKK-TTJJTJT-OOO-[…]-KKK-NH2 (SEQ ID NO:5) K indicates lysine; J, pseudoisocytosine (for C) for pH-independent triplex formation. O, 8-amino-2,6,10-trioxaoctanoic acid linkers connecting the Hoogsteen and Watson-Crick domains of the tcPNAs, serine modified bases (bold and underlined) along the Watson-Crick domain and donor DNA: […]

[3] = system: SCD mutation (β-globin gene), CD117+ HSPCs; test: SCD gene correction by ddPCR of gDNA, CD117+ HSPCs; format: cell-based, mouse
Protocol: Bulk bone marrow cells were treated with PLGA NPs encapsulating tcPNA 1A, 2A, 3A and correcting donor DNA molecules. 72 hours after treatment, HSPCs were isolated by CD117+ selection. gDNA was harvested from these cells and assayed for gene correction via ddPCR.
as §1

[4] = system: double-stranded DNA target (200 bp); test: PNA incubation with double-stranded DNA target, triplex band; format: binding; settings: unmodified tcPNA 2 vs modified tcPNA 2A; both temperature conditions
Protocol: Modified (tcPNA 2A) and unmodified (tcPNA 2) PNAs were incubated with a double-stranded DNA target (200 bp) at indicated temperatures.

[5] = system: Primary mouse bone marrow cells; test: Cytokine expression in primary mouse bone marrow cells after NP treatment; format: cell-based; settings: PLGA NPs encapsulating tcPNA 1A and correcting donor DNA; 48 hours after treatment
Protocol: The toxicity and safety of PNA/donor DNA delivery using nanoparticles were investigated. Primary mouse bone marrow cells were treated with PLGA nanoparticles (NPs) encapsulating tcPNA 1A and correcting donor DNA. 48 hours after treatment cells were spun, media collected, and assayed for cytokine expression.

[6] = bulk bone marrow cells, 1 uM dose
[7] = bulk bone marrow cells, 10 uM dose
[8] = PLGA NPs encapsulating tcPNA 2, 72 hours, comparison of three cell populations

`O=c1c2ccccc2nc(/C=C/c2cccnc2)n1Cc1ccccc1` [B0-2] showed a gene editing frequencies ([1]; bulk bone marrow cells, PLA-HPG nanoparticles encapsulating tcPNA 2 or sertcPNA 2, with or without modulator of DNA repair) of ~12%.
With `c1cc(CN2CCCNCCNCCCNCC2)ccc1CN1CCCNCCNCCCNCC1` [Plerixafor, plerixafor] the “effect of added factor on gene editing frequencies by ddPCR” value ([1]; 72 hours) was “increased gene editing frequencies”.
`O=C1C(Cl)=C(N2CCOCC2)C(=O)N1c1ccc(Cl)c(Cl)c1` [RI-1] was tested, and the “effect of DNA repair modulator on editing vs NP only” value (“effect … vs NP only” for short) [1, 6] was “higher levels of editing” and the “effect … vs NP only” value [1, 7] was “reduced levels”.
`O=C(Nc1ccc(Br)cc1)c1ccc(Br)c(S(=O)(=O)NCc2ccccc2)c1` [RS-1] was tested, and the “effect … vs NP only” value [1, 6] was “reduced editing frequencies” and the “effect … vs NP only” value [1, 7] was “higher levels of editing”.
With `O=c1[nH]c(=S)[nH]c(N=Cc2ccccc2)c1N=Cc1ccccc1` [SCR-7] the “effect … vs NP only” value [1, 6] was “decreased PNA-mediated gene editing” and the “effect … vs NP only” value [1, 7] was “decreased PNA-mediated gene editing”.
For SCF: stem cell factor, C-kit ligand, the “effect of added factor on gene editing frequencies by ddPCR” value ([1]; 72 hours) was “increased gene editing frequencies”.
With “^sertcPNA 2: tc PNA 2 sequence (SEQ ID NO:5) modified with a hydroxymethyl (serine) group at the γ position along the Watson-Crick domain (TTNNTNTTCTCCTTAAACCTGTCTT; gamma-serine (hydroxymethyl) modified PNA backbone, chemistry not fully specified)” the “gene editing relative to unmodified tcPNA 2” value ([1]; bulk bone marrow cells, PLGA or PLA-HPG nanoparticles with donor DNA, even at lower NP doses) was “increased gene editing appreciably”.
In the case of “lys-lys-lys-TTJJTJT-OOO-TCTCCTTAAACCTGTCTT-lys-lys-lys (SEQ ID NO:5) (TTNNTNTTCTCCTTAAACCTGTCTT; PNA, lysine ends, OOO linker, chemistry not fully specified) [tcPNA 2, tail-clamp PNA oligomer targeting the β-globin gene]”, the “gene editing by ddPCR, HSPCs isolated via negative selection” value [2] is reported as “highest levels of editing”, the “gene editing in vivo” value (Berk hemizygous mice) is reported as “can Drive Gene Editing In Vivo” and the “gene editing by ddPCR, CD117+ population” value [3, 8] is reported as “appreciable editing”. For the same molecule, the “invasion of duplex DNA (triplex band)” value [4] was “superior invasion of duplex DNA”, the “gene editing by ddPCR, bulk population” value [1, 8] was “appreciable editing” and the “level of editing (correction of the SCD mutation) by ddPCR” value ([1]; bulk bone marrow cells, PLGA NPs, unmodified tcPNA 2 vs mini-PEG modified tcPNA 2A, 72 hours) was “highest level of editing”.
For “tcPNA 1A: SEQ ID NO:14 tail-clamp PNA with alternating mini-PEG modified bases along the Watson-Crick domain (NNTNTTNCTTCTCCACAGGAGTCAG; alternating gamma mini-PEG modified PNA units, chemistry not fully specified)”, the inflammatory cytokine expression [5] was “did not produce inflammatory cytokine expression”.
“tcPNA 2A: SEQ ID NO:5 tail-clamp PNA with alternating mini-PEG modified bases along the Watson-Crick domain (TTNNTNTTCTCCTTAAACCTGTCTT; alternating gamma mini-PEG modified PNA units, chemistry not fully specified)” was tested, and the “level of gene editing as measured by ddPCR (SCD gene correction)” value ([3]; CD117+ HSPCs isolated 72 hours after treatment, PLGA NPs encapsulating tcPNA 1A, 2A, 3A and donor DNA, compared with each other) was “highest level of gene editing” and the “level of gene editing as measured by ddPCR (SCD gene correction)” value ([1]; bulk mouse bone marrow cells, PLGA NPs encapsulating tcPNA 1A, 2A, 3A and donor DNA, compared with each other) was “highest level of gene editing”.
